Measured values reported in ChEMBL document CHEMBL1255488, “Semimechanistic pharmacokinetic-pharmacodynamic model with adaptation development for time-kill experiments of ciprofloxacin against Pseudomonas aeruginosa” (2010).
Converted amounts (≈) assume the structure as drawn.

Key:
[1] = system: Pseudomonas aeruginosa; test: Antimicrobial activity against Pseudomonas aeruginosa PAO1 by microdilution method in presence of 40 ug/ml efflux-pump inhibitor PAbetaN
[2] = system: Pseudomonas aeruginosa; test: Antimicrobial activity against Pseudomonas aeruginosa PAO7H by microdilution method
[3] = system: Pseudomonas aeruginosa; test: Antimicrobial activity against Pseudomonas aeruginosa PAO7H by microdilution method in presence of 40 ug/ml efflux-pump inhibitor PAbetaN
[4] = system: Pseudomonas aeruginosa; test: microbe, parasite or virus in culture; settings: PAO1
[5] = system: Pseudomonas aeruginosa; test: microbe, parasite or virus in culture; settings: PAO1; remark: listed apart in the source
Description: Antimicrobial activity against 0.12 ug/ml compound pre-treated Pseudomonas aeruginosa PAO1 in presence of 0.25 ug/ml of compound during plating experiment by microdilution method

[6] = system: Pseudomonas aeruginosa; test: microbe, parasite or virus in culture; settings: PAO1; remark: listed apart in the source
Description: Antimicrobial activity against 0.12 ug/ml compound pre-treated Pseudomonas aeruginosa PAO1 in presence of 0.25 ug/ml of compound during plating experiment by microdilution method in presence of 40 ug/ml efflux-pump inhibitor PAbetaN

[7] = system: Pseudomonas aeruginosa; test: microbe, parasite or virus in culture; settings: PAO1; remark: listed apart in the source
Description: Antimicrobial activity against 0.12 ug/ml compound pre-treated Pseudomonas aeruginosa PAO1 by microdilution method

[8] = system: Pseudomonas aeruginosa; test: microbe, parasite or virus in culture; settings: PAO1; remark: listed apart in the source
Description: Antimicrobial activity against 0.12 ug/ml compound pre-treated Pseudomonas aeruginosa PAO1 by microdilution method in presence of 40 ug/ml efflux-pump inhibitor PAbetaN

[9] = system: Pseudomonas aeruginosa; test: microbe, parasite or virus in culture; settings: PAO1; remark: listed apart in the source
Description: Antimicrobial activity against 0.12 ug/ml compound pre-treated Pseudomonas aeruginosa PAO1 in presence of 0.5 ug/ml of compound during plating experiment by microdilution method in presence of 40 ug/ml efflux-pump inhibitor PAbetaN

[10] = system: Pseudomonas aeruginosa; test: microbe, parasite or virus in culture; settings: PAO1; remark: listed apart in the source
Description: Antimicrobial activity against 0.12 ug/ml compound pre-treated Pseudomonas aeruginosa PAO1 in presence of 1 ug/ml of compound during plating experiment by microdilution method in presence of 40 ug/ml efflux-pump inhibitor PAbetaN

[11] = system: Pseudomonas aeruginosa; test: microbe, parasite or virus in culture; settings: PAO1; remark: listed apart in the source
Description: Antimicrobial activity against 0.12 ug/ml compound pre-treated Pseudomonas aeruginosa PAO1 in presence of 2 ug/ml of compound during plating experiment by microdilution method in presence of 40 ug/ml efflux-pump inhibitor PAbetaN

[12] = system: Pseudomonas aeruginosa; test: microbe, parasite or virus in culture; settings: PAO1; remark: listed apart in the source
Description: Antimicrobial activity against 0.25 ug/ml compound pre-treated Pseudomonas aeruginosa PAO1 by microdilution method

[13] = system: Pseudomonas aeruginosa; test: microbe, parasite or virus in culture; settings: PAO1; remark: listed apart in the source
Description: Antimicrobial activity against 0.25 ug/ml compound pre-treated Pseudomonas aeruginosa PAO1 in presence of 0.25 ug/ml of compound during plating experiment by microdilution method

[14] = system: Pseudomonas aeruginosa; test: microbe, parasite or virus in culture; settings: PAO1; remark: listed apart in the source
Description: Antimicrobial activity against 0.25 ug/ml compound pre-treated Pseudomonas aeruginosa PAO1 in presence of 0.25 ug/ml of compound during plating experiment by microdilution method in presence of 40 ug/ml efflux-pump inhibitor PAbetaN

[15] = system: Pseudomonas aeruginosa; test: microbe, parasite or virus in culture; settings: PAO1; remark: listed apart in the source
Description: Antimicrobial activity against 0.25 ug/ml compound pre-treated Pseudomonas aeruginosa PAO1 in presence of 0.5 ug/ml of compound during plating experiment by microdilution method

[16] = system: Pseudomonas aeruginosa; test: microbe, parasite or virus in culture; settings: PAO1; remark: listed apart in the source
Description: Antimicrobial activity against 0.25 ug/ml compound pre-treated Pseudomonas aeruginosa PAO1 in presence of 0.5 ug/ml of compound during plating experiment by microdilution method in presence of 40 ug/ml efflux-pump inhibitor PAbetaN

[17] = system: Pseudomonas aeruginosa; test: microbe, parasite or virus in culture; settings: PAO1; remark: listed apart in the source
Description: Antimicrobial activity against 0.25 ug/ml compound pre-treated Pseudomonas aeruginosa PAO1 in presence of 1 ug/ml of compound during plating experiment by microdilution method

[18] = system: Pseudomonas aeruginosa; test: microbe, parasite or virus in culture; settings: PAO1; remark: listed apart in the source
Description: Antimicrobial activity against 0.25 ug/ml compound pre-treated Pseudomonas aeruginosa PAO1 in presence of 1 ug/ml of compound during plating experiment by microdilution method in presence of 40 ug/ml efflux-pump inhibitor PAbetaN

O=C(O)c1cn(C2CC2)c2cc(N3CCNCC3)c(F)cc2c1=O [CIPROFLOXACIN]
MIC [1]: 0.06 µg/mL
MIC [2]: 1 µg/mL (≈ 3.02 µM)
MIC [3]: 0.06 µg/mL
MIC [4]: 0.06 µg/mL (≈ 0.181 µM)
MIC [5]: 1 µg/mL (≈ 3.02 µM)
MIC [6]: 0.12 µg/mL (≈ 0.362 µM)
MIC [7]: 1 µg/mL (≈ 3.02 µM)
MIC [8]: 0.06 µg/mL (≈ 0.181 µM)
MIC [9]: 0.12 µg/mL (≈ 0.362 µM)
MIC [10]: 0.12 µg/mL (≈ 0.362 µM)
MIC [11]: 0.12 µg/mL (≈ 0.362 µM)
MIC [12]: 1 µg/mL (≈ 3.02 µM)
MIC [13]: 1 µg/mL (≈ 3.02 µM)
MIC [14]: 0.12 µg/mL (≈ 0.362 µM)
MIC [15]: 1 µg/mL (≈ 3.02 µM)
MIC [16]: 0.12 µg/mL (≈ 0.362 µM)
MIC [17]: 1 µg/mL (≈ 3.02 µM)
MIC [18]: 0.12 µg/mL (≈ 0.362 µM)
